Literature values, collected in patent US9181307B2, “Influenza A 2009 pandemic H1N1 polypeptide fragments comprising endonuclease activity and their use” (priority 2010, dated 2015).

Target: influenza endonuclease (Influenza A virus, UniProt P03433)
Conditions: recently reported, Kuzuhara 2009; cited from earlier work

Structure (SMILES): O=C(O[C@@H]1Cc2c(O)cc(O)cc2O[C@@H]1c1cc(O)c(O)c(O)c1)c1cc(O)c(O)c(O)c1 [EGCG, [(2R,3R)-5,7-dihydroxy-2-(3,4,5-trihydroxyphenyl)chroman-3-yl]3,4,5-trihydroxybenzoate]
- inhibits the influenza endonuclease: inhibits the influenza endonuclease
